Experimental data as given in patent US20240050406A1, “COMPOSITION COMPRISING OXIRACETAM FOR PREVENTING OR TREATING MUSCULAR DISEASE” (KSB TUGEN INC., priority 2021, published 2024).

Assays:
[1] = tested on: C2C12 myotubes; test: Myotube diameter in doxorubicin-induced cachexia cell model (Experimental Example 8); format: cell-based, mouse; conditions: doxorubicin 500 nM 48 h with or without oxiracetam 0.01, 0.1, 1, 10 and 30 μM; relative to control
Description: A mouse-derived C2C12 cell line was provided from the American Type Culture Collection (ATCC, CRL-1772; Manassas, VA, USA) and cultured at 37° C. in 5% CO2. In the proliferation phase of the cells before differentiation, high concentration glucose Dulbecco's modified Eagle's medium (DMEM) containing 1% penicillin/streptomycin and 10% fetal bovine serum (FBS) medium were used, and in the differentiation induction, the FBS medium was replaced with a 2% horse serum (HS)-containing medium. The C2C12 myoblasts were seeded into a 96 well culture plate and a 6 well culture plate at 2×10^5/well and 5×10^3/well, respectively, and cultured at 37° C. in a CO2 incubator. […]
Two days after anticancer agent and oxiracetam treatment, the anticancer agent-treated group (Doxorubicin), the oxiracetam-treated groups (Oxiracetam 0.01 μM, 0.1 μM, 1 μM, 10 μM and 30 μM), and the control (control) were photographed using an optical microscope at a room temperature, and the diameter (Diameter, %) of a myotube in each group was measured and compared.
Statistical processing was performed using GraphPad Prism (GraphPad Software Inc., San Diego, CA, USA). The results of each repeated experiment were expressed as mean±standard error of mean, and analyzed using the analysis of variance (Tukey's test), and statistical significance was acknowledged when the P-value was 0.05 or less.

[2] = tested on: animal model in which muscular atrophy was induced by dexamethasone; test: Comparison with racetam-based drugs in dexamethasone muscular atrophy model (Experimental Example 4); format: in vivo, ICR mice
Description: For an experimental group in the present invention, oxiracetam having a structure of Formula 1 was purchased from Tokyo Chemical Industry (Japan; Product No. 00398, CAS RN:62613-82-5, purity: 96%) and used. Other racetam drugs, such as aniracetam and nepiracetam, were purchased from Bide Pharmatech (W-44; China, Product Nos. BD114391, BD140804, purity: 96%), piracetam, phenylpiracetam, corulacetam and pramiracetam were purchased from Tokyo Chemical Industry (Japan, Product Nos. P2880, P2604, C3689, P2061, purity: 96%), levetiracetam was purchased from Roeun China, Product No. R025860, purity: 96%), brivaracetam was purchased from R&D Systems (USA, Product No. 7271, purity: 96%), rolziracetam and faroracetam were purchased from Targetmol (USA, Product Nos. T16783, T19624, purity: 96%), and rolipram was purchased from Aladdin (MAT; China, Product No. R129674, purity: 96%).
As experimental animals, 7-week-old male ICR mice were purchased and used. […]
To measure grip strength, a grip strength test was performed. […] After measurement before drug administration (day 0) and on day 20 after drug administration began, grip strength variation (%) after drug administration began (day 20) with respect to that before drug administration (day 0) was calculated.
The lean body mass of the gastrocnemius muscle (GS) and the lean body mass of the tibialis anterior (TA) for each group were measured every 7 days. […] During photographing, the respiratory rates and body temperatures of the animal models were measured with an animal monitoring system (SA Instruments, USA).
The whole body of the animal model was photographed through dual energy X-ray absorptiometry (DEXA) using iNSiGHT VET DXA (Osteosys, KR), and the lean body mass of each of the gastrocnemius muscle (GS) and the tibialis anterior (TA) was measured and calculated from the two-dimensional images of the gastrocnemius muscle (GS) and the tibialis anterior (TA) by a program using the region of interest (ROI). […]

[3] = drug 30 mg/kg/day (piracetam 100 mg/kg/day) oral 21 days + dexamethasone, DEXA every 7 days

With `NC(=O)CN1CC(O)CC1=O` (racemic) [oxiracetam, (RS)-2-(4-hydroxy-2-oxopyrrolidin-1-yl)acetamide] the diameter of myotube [1] was “significantly recovered and greatly increased to the control (normal group) level”, the “change in grip strength” value ([2]; drug 30 mg/kg/day (piracetam 100 mg/kg/day) oral 21 days + dexamethasone 10 mg/kg i.p. day 7-21, day 20 vs day 0) was “recovers to greater than the control” and the “lean body mass of the gastrocnemius muscle (GS)” value [2, 3] was “recover the lean body mass of the gastrocnemius muscle (GS) to the control (vehicle) level”. The “lean body mass of the tibialis anterior (TA)” value [2, 3] was “recover the lean body mass of the tibialis anterior (TA) to the control (vehicle) level”.
